Patent US12410211B2, “V1A receptor partial agonist and method of use” (PharmaIN Corporation, priority 2020, dated 2025)
Read-outs that look alike come from different tables or passages of the source. Marks after values point to notes of the source that are not given here.

Key:
[1] = molecular target: T1, V1a receptor (Homo sapiens, UniProt P37288); assay: V1a Human Vasopressin GPCR Cell Based Agonist Calcium Flux Assay; conditions: Table 3; for Emax: read-out: V1a Highest agonist effect (% of AVP); for Emax / EC50: n = 2
T1 construct: host or cells: CHO cells
Protocol: Peptides of Formula (I) include Mpa-Tyr-Phe-Hgn-Asn-Cys-Pro-Lys(X)a-Gly-NH2 [SEQ ID NO. 24]; where (X)a is a peptide with “a” residues and each residue X is independently selected from Gly, and a D- or L-amino acid version of Ala, Lys, Orn, Glu, and Asp, where “a” is 0-10. V1a Human Vasopressin GPCR Cell Based Agonist Calcium Flux Assay were conducted at Eurofins Cerep SA (France) on a fee for service basis. Human recombinant CHO cells expressing human V1 receptors were distributed in microplates. Intracellular calcium signal was detected by fluorimetry, and the signal was acquired before and after addition of a known agonist concentration. The following agonist concentrations were tested (nM); 0.0128, 0.064, 0.32, 1.6, 8, 40, 200, and 1,000. […] All assays were performed in duplicate. Changes in fluorescence intensity reflected changes in the concentration of free cytosolic calcium. […] The half-maximal effective concentration (EC50) was determined by a non-linear regression analysis of the concentration-response curves generated with mean replicate values using Hill equation curve fitting (Cerep, I'Evescault, France).
V1a Human Vasopressin GPCR Cell Based Agonist Calcium Flux Assay were conducted using human recombinant CHO cells expressing human V1 receptor. Briefly, human recombinant CHO cells expressing human V1 receptor were distributed in microplates at 4.5×10^4 cells/well. The fluorescent probe (Fluo4 Direct, Invitrogen) mixed with probenicid in HBSS buffer (Invitrogen) complemented with 20 mM HEPES (Invitrogen) (pH 7.4) is then added into each well and equilibrated with the cells for 60 min at 37° C. then 15 min at 22° C. Thereafter, the assay plates are positioned in a microplate reader (CellLux, PerkinElmer) which is used for the addition of the test compound, reference agonist or HBSS buffer (basal control), and the measurements of changes in fluorescence intensity which varies proportionally to the free cytosolic Ca^2+ ion concentration. The following agonist concentrations were tested (nM), 0.0128, 0.064, 0.32, 1.6, 8, 40, 200, and 1,000. […] All assays were performed in duplicate. Changes in fluorescence intensity reflected changes in the concentration of free cytosolic calcium. […] Referring to FIG. 3 and Table 4, the half-maximal effective concentration (EC50) was determined by non-linear regression analysis of the concentration-response curves generated with mean replicate values using Hill equation curve fitting (Cerep, I'Evescault, France).

[2] = Therapeutic index (NOAEL/NOEL): paleness, lethargy, ataxia observation in Sprague-Dawley rats (Example 7); format: in vivo; conditions: for Highest dose with no-observed effect level or paleness (NOEL) / NOAEL/NOEL (therapeutic index) / NOAEL at 24 h / Marked adverse effect (Lowest dose first showed Ataxia) / Mild adverse effect (Lowest dose first showed Lethargy) / NOAEL / Ataxia (duration, hrs; SD) / Lethargy (duration, hrs; SD): rat; for NOAEL at 24 h: male, Sprague-Dawley; for NOAEL at 24 h / NOAEL: read-out: Highest dose with no-observed adverse effect level without lethargy (NOAEL)
Description: As used herein, the term “therapeutic index” (TI; also referred to as therapeutic ratio) is a quantitative measure of the relative safety of a drug. […] For the purpose of the present application, lethargy is a lack of energy and/or sleepiness which is visually observed in rats as a lack of mobility, such as a lack of mobility even in the presence of human activity. For the purpose of present specification, peripheral vasoconstriction is visually observed by a paleness of the extremities (e.g., skin of hands, feet, ears, and lips). In rats, peripheral vasoconstriction is determined by a side-by-side comparison of ear paleness in treated subjects (e.g., Sprague Dawley rats, a white rat with easily visualizable changes in redness/paleness) vs. untreated control subjects. The V1a agonist (or partial agonist) with a high therapeutic index will have a better safety profile than that with a low therapeutic index by providing a wider margin of safety for dosing during the treatment of the disease. This NOAEL/NOEL ratio, being a quantitative measure of the relative safety, is a comparison of the amount of a therapeutic agent that causes the therapeutic effect (useful effect, vasoconstriction for the purpose of the present specification) to the amount that causes toxicity. A V1a agonist that causes severe vasoconstriction will affect not only the peripheral vessels, with several layer of smooth muscles, but also other vessels present in other organs (e.g., heart, lungs, kidney, brain) and this will result in observed lethargy and eventually ataxia. A partial agonist is less likely to reach such an extreme level of vasoconstriction and is believed to have a higher therapeutic index.
In this study, 8 to 10 weeks male Sprague-Dawley rats (Charles River; Wilmington, MA) under isoflurane anesthesia (n=3 or 6) were intravenously (IV) or subcutaneously (SC) injected or administered with various test articles. Prior to administration of test articles, the injection area was clipped free of fur, to allow for clear visualization of the dose site, and animal weight was measured and recorded. Animals were housed two per cage. […] Lethargy is when the animal eyes cannot fully open and is associated deep breathing and limited of movement even in the presence of human.

[3] = S.C., at the Marked adverse effect dose
[4] = S.C., at the Mild adverse effect dose
[5] = cells printed in μM, read-out: Estimated V1a EC50

T1 sequence (P37288 whole entry): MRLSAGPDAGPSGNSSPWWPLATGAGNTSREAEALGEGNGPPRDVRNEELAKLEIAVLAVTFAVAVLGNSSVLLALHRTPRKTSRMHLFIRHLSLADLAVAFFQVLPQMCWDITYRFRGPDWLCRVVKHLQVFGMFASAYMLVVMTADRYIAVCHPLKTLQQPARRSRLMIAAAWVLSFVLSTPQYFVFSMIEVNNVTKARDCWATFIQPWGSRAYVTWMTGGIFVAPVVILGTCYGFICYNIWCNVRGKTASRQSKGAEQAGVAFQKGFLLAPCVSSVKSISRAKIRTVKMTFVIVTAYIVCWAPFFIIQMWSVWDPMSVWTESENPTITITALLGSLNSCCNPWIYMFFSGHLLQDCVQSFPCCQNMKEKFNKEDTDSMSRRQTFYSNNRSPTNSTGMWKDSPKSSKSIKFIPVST

Compound: NCCCC[C@H](NC(=O)[C@@H]1CCCN1C(=O)[C@@H]1CSSCCC(=O)N[C@@H](Cc2ccc(O)cc2)C(=O)N[C@@H](Cc2ccccc2)C(=O)N[C@@H](CCCC(N)=O)C(=O)N[C@@H](CC(N)=O)C(=O)N1)C(=O)NCC(N)=O [SEQ ID NO. 25, Mpa-Tyr-Phe-Hgn-Asn-Cys-Pro-Lys-Gly-NH2]
- Emax [1]: 42.8%
- Paleness (Duration, hrs; SD) [2, 3]: (4.9 ± 0.05) hrs
- Paleness (Duration, hrs; SD) [2, 4]: (5.66 ± 0.83) hrs
- Paleness (Duration, hrs; SD) ([2]; S.C., at the NOAEL dose): (3.78 ± 0.05) hrs
- Paleness (Duration, hrs; SD) ([2]; S.C., at the NOEL dose): None observed
- Highest dose with no-observed effect level or paleness (NOEL) ([2]; S.C.): 0.0015 mg/kg
- NOAEL/NOEL (therapeutic index) ([2]; S.C.): 10
- NOAEL at 24 h ([2]; in vivo, sc, S.C.): 0.015 mg/kg
- Marked adverse effect (Lowest dose first showed Ataxia) ([2]; in vivo, sc): 0.15 mg/kg
- Mild adverse effect (Lowest dose first showed Lethargy) ([2]; in vivo, sc): 0.05 mg/kg
- bioactivity duration compared with terlipressin ([2]; remark in NOAEL/NOEL column): 3x longer

Compound: NCCCCCCCCCCCC(=O)NCCCC[C@H](NC(=O)[C@@H]1CCCN1C(=O)[C@@H]1CSSCCC(=O)N[C@@H](Cc2ccc(O)cc2)C(=O)N[C@@H](Cc2ccccc2)C(=O)N[C@@H](CCCC(N)=O)C(=O)N[C@@H](CC(N)=O)C(=O)N1)C(=O)NCC(N)=O [SEQ ID NO. 19, Mpa-Tyr-Phe-Hgn-Asn-Cys-Pro-Lys(12-aminododecanoic acid)-Gly-NH2]
- EC50 [1, 5]: > 10 µM
- Emax [1]: 2.5%
- Highest dose with no-observed effect level or paleness (NOEL) ([2]; S.C.): 0.014 mg/kg
- Marked adverse effect (Lowest dose first showed Ataxia) ([2]; S.C.): >9.08 mg/kg
- Mild adverse effect (Lowest dose first showed Lethargy) ([2]; S.C.): >9.08 mg/kg
- NOAEL/NOEL (therapeutic index) ([2]; S.C.): 649 (Dose too
- NOAEL ([2]; in vivo, sc, S.C.): 9.08 mg/kg
- Ataxia (duration, hrs; SD) ([2]; in vivo, sc): None Observed
- Lethargy (duration, hrs; SD) ([2]; in vivo, sc): None Observed

Compound: NCC(=O)NCCCC[C@H](NC(=O)[C@@H]1CCCN1C(=O)[C@@H]1CSSCCC(=O)N[C@@H](Cc2ccc(O)cc2)C(=O)N[C@@H](Cc2ccccc2)C(=O)N[C@@H](CCCC(N)=O)C(=O)N[C@@H](CC(N)=O)C(=O)N1)C(=O)NCC(N)=O [SEQ ID NO. 8, Mpa-Tyr-Phe-Hgn-Asn-Cys-Pro-Lys(X)-Gly-NH2; X = Gly]
- EC50 ([1]; CHO cells expressing human V1 receptor, read-out: Estimated V1a EC50 (nM)): 0.0253 µM
- Emax [1]: 40.3%
- Paleness (Duration, hrs; SD) [2, 3]: (>6.12)* hrs
- Paleness (Duration, hrs; SD) [2, 4]: (>6.12)* hrs
- Paleness (Duration, hrs; SD) ([2]; S.C., at the NOAEL dose): (6.20 ± 0.28) hrs
- Paleness (Duration, hrs; SD) ([2]; S.C., at the NOEL dose): None Observed
- Highest dose with no-observed effect level or paleness (NOEL) ([2]; S.C.): 0.0015 mg/kg
- NOAEL/NOEL (therapeutic index) ([2]; S.C.): 10
- NOAEL at 24 h ([2]; in vivo, sc, S.C.): 0.15 mg/kg
- Marked adverse effect (Lowest dose first showed Ataxia) ([2]; in vivo, sc): 1.5 mg/kg
- Mild adverse effect (Lowest dose first showed Lethargy) ([2]; in vivo, sc): 0.5 mg/kg

Compound: CCCCCCCCCCCC(=O)NCCCC[C@H](NC(=O)[C@@H]1CCCN1C(=O)[C@@H]1CSSCCC(=O)N[C@@H](Cc2ccc(O)cc2)C(=O)N[C@@H](Cc2ccccc2)C(=O)N[C@@H](CCCC(N)=O)C(=O)N[C@@H](CC(N)=O)C(=O)N1)C(=O)NCC(N)=O [SEQ ID NO. 27, Mpa-Tyr-Phe-Hgn-Asn-Cys-Pro-Lys(X)a-Gly-NH2; (X)a = Lauric acid]
- V1a Highest agonist effect (% of AVP); n = 2 [1]: inactive
- EC50 [1, 5]: > 10 µM
- Highest dose with no-observed effect level or paleness (NOEL) ([2]; S.C.): 0.1 mg/kg
- NOAEL/NOEL (therapeutic index) ([2]; S.C.): 90 (dose too
- NOAEL ([2]; in vivo, sc, S.C.): 9 mg/kg
- Ataxia (duration, hrs; SD) ([2]; in vivo, sc): None Observed
- Lethargy (duration, hrs; SD) ([2]; in vivo, sc): None Observed
- Marked adverse effect (Lowest dose first showed Ataxia) ([2]; in vivo, sc): >9 mg/kg
- Mild adverse effect (Lowest dose first showed Lethargy) ([2]; in vivo, sc): >9 mg/kg
